From ChEMBL document CHEMBL1201862, “PubChem BioAssay data set” (2004)
Calls of active or inactive are those of the source.

Assays:
[1] = viability loss in CEM21 cells – cell-based, CellTiter-Glo luminescence, cherry-picked, cytotoxicity control for viral fusion inhibitor project, dose response (AID 652042); type: functional;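 note: potency for signal decrease meaning cytotoxicity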
Protein RecA = molecular target: T1, Protein RecA (Mycobacterium tuberculosis, UniProt P9WHJ3); assay: Fluorescence Cell-Free Homogeneous Dose Retest to Identify Inhibitors of RecA-Intein Splicing Activity. [Related pubchem assays (depositor defined):AID2097, AID2223, AID489010, AID492950]; type: functional
T1 sequence (P9WHJ3 whole entry): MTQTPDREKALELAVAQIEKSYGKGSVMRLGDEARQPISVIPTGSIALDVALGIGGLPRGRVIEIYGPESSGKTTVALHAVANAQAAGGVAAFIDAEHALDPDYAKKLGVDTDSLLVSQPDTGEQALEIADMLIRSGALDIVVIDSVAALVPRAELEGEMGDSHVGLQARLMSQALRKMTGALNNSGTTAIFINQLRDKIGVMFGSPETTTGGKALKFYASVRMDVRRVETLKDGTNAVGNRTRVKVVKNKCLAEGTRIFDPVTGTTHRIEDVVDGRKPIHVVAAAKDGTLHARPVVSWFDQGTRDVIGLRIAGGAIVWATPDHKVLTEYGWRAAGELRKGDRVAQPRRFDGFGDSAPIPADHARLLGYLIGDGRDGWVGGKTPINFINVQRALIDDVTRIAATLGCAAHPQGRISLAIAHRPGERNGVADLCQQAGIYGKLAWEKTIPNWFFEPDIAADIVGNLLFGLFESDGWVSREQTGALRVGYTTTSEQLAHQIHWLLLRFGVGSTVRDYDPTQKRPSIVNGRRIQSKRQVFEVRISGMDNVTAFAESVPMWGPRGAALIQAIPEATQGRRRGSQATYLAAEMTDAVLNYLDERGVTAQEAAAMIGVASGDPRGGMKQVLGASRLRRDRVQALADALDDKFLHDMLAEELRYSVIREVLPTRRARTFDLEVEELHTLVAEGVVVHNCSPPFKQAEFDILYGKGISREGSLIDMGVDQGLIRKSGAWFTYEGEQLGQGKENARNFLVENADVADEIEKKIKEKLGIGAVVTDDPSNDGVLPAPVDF

[2] = molecular target: T2, Replicative DNA helicase DnaB (Mycobacterium tuberculosis, UniProt P9WMR3); assay: DnaB intein splicing inhibitors, dose response, biochemical, cell-free fluorescence (AID 449749); type: functional
T2 sequence (P9WMR3 whole entry): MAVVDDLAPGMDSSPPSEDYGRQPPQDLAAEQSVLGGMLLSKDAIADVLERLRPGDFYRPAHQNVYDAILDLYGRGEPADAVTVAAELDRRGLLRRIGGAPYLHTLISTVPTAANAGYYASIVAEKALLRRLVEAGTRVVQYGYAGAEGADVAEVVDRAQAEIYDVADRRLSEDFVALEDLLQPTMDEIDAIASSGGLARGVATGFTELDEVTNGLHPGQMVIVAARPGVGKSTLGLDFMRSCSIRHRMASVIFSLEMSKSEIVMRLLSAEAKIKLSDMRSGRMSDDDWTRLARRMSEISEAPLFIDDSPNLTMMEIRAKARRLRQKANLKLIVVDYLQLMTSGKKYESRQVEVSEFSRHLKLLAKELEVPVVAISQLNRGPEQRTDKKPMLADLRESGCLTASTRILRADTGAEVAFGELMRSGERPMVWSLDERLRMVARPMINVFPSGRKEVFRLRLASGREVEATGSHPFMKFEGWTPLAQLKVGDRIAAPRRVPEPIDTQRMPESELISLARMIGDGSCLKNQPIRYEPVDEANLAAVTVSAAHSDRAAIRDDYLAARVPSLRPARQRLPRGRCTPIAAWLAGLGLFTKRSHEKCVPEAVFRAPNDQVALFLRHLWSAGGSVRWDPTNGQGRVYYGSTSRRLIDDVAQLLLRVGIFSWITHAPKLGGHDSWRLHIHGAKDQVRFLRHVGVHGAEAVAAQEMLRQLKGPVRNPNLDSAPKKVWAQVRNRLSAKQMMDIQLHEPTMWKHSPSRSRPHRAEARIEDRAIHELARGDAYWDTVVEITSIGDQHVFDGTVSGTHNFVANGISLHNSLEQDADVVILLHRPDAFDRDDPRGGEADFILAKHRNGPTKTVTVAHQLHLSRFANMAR

[3] = off-target signal loss in HeLa-CEM21 co-culture – HeLa F-luc CTL cells, cherry-picked, counter-screen for HIV-1 Env fusion inhibitor project, dose response (AID 652040); type: functional, cell-based;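 note: potency for signal decrease marking cytotoxic or nonspecific inhibition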
[4] = Luminescence Cell-Based Dose Retest to Confirm Inhibitors of Cancer Stem Cells. [Related pubchem assays (depositor defined):AID2717, AID2721]; type: functional; conditions: Homo sapiens
[5] = blockers of HIV-1 envelope-mediated cell-cell fusion – cherry-pick, dose response (AID 652057); type: functional, cell-based
[6] = HIV-1 AD8 envelope cell-cell fusion blockers – cherry-pick, dose response (AID 652062); type: functional, cell-based;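 note: luciferase signal from cell-cell fusion driven by HIV-1 clade B AD8 Env; potency is for inhibitors of fusion seen as a drop in luminescence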
[7] = T. cruzi growth inhibition in host cells, dose response, cell-based, plate reader, dry powder, set 2 (AID 652275); type: functional
[8] = anti-trypanosomal activity in BESM host cells – imaging, CA-I/72 strain, bovine embryo skeletal muscle, dry powder, dose response (AID 651885); type: functional, cell-based
[9] = A2780 cell killing – plate reader, dry powder samples, cytotoxicity control, dose response (AID 743046); type: functional, cell-based
[10] = blockers of HIV-1 ZM109 envelope-driven cell-cell fusion – HeLa effector, CEM target cells, luciferase, cherry-pick, dose response (AID 652058); type: functional, cell-based;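 note: luciferase signal from HIV-1 Env mediated cell-cell fusion of effector and target cells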
[11] = OVCAR-3 cell viability loss – plate reader, dry powder samples, PAX8 inhibitor project, dose response (AID 743044); type: functional, cell-based
Paired box protein Pax-8 = Paired box protein Pax-8 (Homo sapiens, UniProt Q06710); assay: PAX8 transcriptional activity inhibition in RMG-I – RMG-I cells, luciferase, cherry-pick, dose response (AID 687027); type: functional, cell-based;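 note: luciferase reporter driven by Pax8 target thyroperoxidase promoter measured by SteadyGlo luminescence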
[12] = IGROV1 cell killing – plate reader, dry powder samples, PAX8 inhibitor project, dose response (AID 743043); type: functional, cell-based; conditions: IGROV-1
[13] = mouse fibroblast viability loss – cell-based, cherry-pick samples, set 2, cytotoxicity control for T. cruzi growth inhibitor project, dose response (AID 651817); type: functional; conditions: NIH3T3
[14] = OVCAR8 cell viability loss – plate reader, dry powder samples, PAX8 project, dose response (AID 743197); type: functional, cell-based; conditions: OVCAR-8
[15] = HGIII-sPLA2 enzyme inhibition potency – biochemical, QFRET, IC50, dose response (AID 743457);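 note: green fluorescence rise as the enzyme cleaves BODIPY PC-A2 in liposomes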

Paired box protein Pax-8, sequence (Q06710 whole entry): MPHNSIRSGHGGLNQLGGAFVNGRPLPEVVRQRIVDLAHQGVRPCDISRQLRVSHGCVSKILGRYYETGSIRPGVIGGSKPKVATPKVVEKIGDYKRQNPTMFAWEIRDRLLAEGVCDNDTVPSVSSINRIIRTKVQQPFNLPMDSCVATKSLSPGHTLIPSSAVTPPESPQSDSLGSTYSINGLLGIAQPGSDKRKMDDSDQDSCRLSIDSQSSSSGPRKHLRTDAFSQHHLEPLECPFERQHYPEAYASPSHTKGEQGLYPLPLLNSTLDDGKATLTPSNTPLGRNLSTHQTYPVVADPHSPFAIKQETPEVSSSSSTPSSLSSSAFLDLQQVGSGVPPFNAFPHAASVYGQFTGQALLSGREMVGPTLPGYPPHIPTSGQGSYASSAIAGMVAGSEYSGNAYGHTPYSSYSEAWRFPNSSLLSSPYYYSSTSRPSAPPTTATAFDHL

For `COc1ccccc1/C=C/C1(C(=O)NC2CCCC2)CC(=O)N1c1ccc(F)cc1` (centres undefined), the AC50 [1] was 12.7 µM (active), the EC50 (Protein RecA) was 2.82 µM (active) and the AC50 [2] was 3.57 µM (active). The AC50 [3] was 5.48 µM (active), the AC50 [4] was 6.36 µM (active) and the AC50 [5] was 3.35 µM (active). The AC50 [6] was 25.2 µM (active).
In the case of `CC(C)N1C[C@@H](CN(C)Cc2ccc(Cl)cc2)Oc2c(NC(=O)c3ncn[nH]3)cccc2C1=O`, the AC50 [7] is reported as 5.99 µM (active).
In the case of `CC(C)N1C[C@H](C)[C@@H](CN(C)CC2CCOCC2)Oc2c(NC(=O)c3ccncc3)cccc2C1=O`, the IC50 [8] is reported as 5.83 µM (inconclusive).
For `C[C@@H]1CN([C@@H](C)CO)C(=O)Cc2cc(NS(=O)(=O)c3ccc(F)cc3)ccc2O[C@H]1CN(C)Cc1ccc(Cl)c(Cl)c1`, the AC50 [9] was 45.6 µM (active), the AC50 [10] was 1.33 µM (active) and the AC50 [11] was 27.8 µM (active). The AC50 (Paired box protein Pax-8) was 3.12 µM (active), the AC50 [12] was 12.6 µM (active) and the AC50 [13] was 7.33 µM (active). For the same compound, the AC50 [5] was 15.4 µM (active), the AC50 [14] was 49.4 µM (active) and the AC50 [6] was 1.52 µM (active).
With `Cc1ccc(C)c(NC(S)=NNC(=O)c2csc(C)c2C)c1` the IC50 [15] was > 122 µM (inactive).
